Data taken from patent publication US20230065158A1, “OXABICYCLOHEPTANES FOR TREATMENT OF SMALL CELL LUNG CANCER” (Lixte Biotechnology, Inc., priority 2021, published 2023).
Entries after “also recorded” stand apart in the source; their conditions may differ.

Key:
[1] = tested on: advanced solid tumors; conditions: cited from earlier work
[2] = tested on: extensive-stage small cell lung carcinoma; conditions: first study subject
Description: The Phase Ib study is a single arm study expected to enroll 18 evaluable patients (maximum 30) entered in groups of 3 at escalating doses of LB-100 using the traditional 3+3 design. […] Each cycle is defined as 3 weeks (21 days). Patients will then proceed to maintenance with LB-100 and atezolizumab. Patients who discontinue study therapy without disease progression will continue to be evaluated for tumor response using RECIST v1.1 (Appendix B) guidelines every 6-8 weeks until disease progression, death, or study closure.
Dose Escalation: The Phase I dose-finding will use a traditional 3+3 to determine the maximum tolerated dose (MTD), based on first cycle DLTs. A maximum of 4 dose levels of LB-100 will be explored. […]
Treatment Overview: This Phase Ib study of LB-100 diluted in 50 mL of normal saline for injection will be administered intravenously in the outpatient clinic over 15 minutes in patients with extensive-stage small cell lung cancer. […] All three patients at each dose level will be assessed for evidence of limiting toxicity through their return visit day 21 (and any delay prior to the start of cycle 2) before the decision is made for dose escalation in the next cohort.

[3] = tested on: H446 cells; conditions: human, 72 h
Description: To determine specific cytotoxicity, we used Cell Counting Kit-8 (Dojindo Molecular Technologies, Rockville, Md.) as previously described (50).

[4] = tested on: H524 and H69 cells; assay: Whole cell Pt accumulation, ICP-MS; assay type: cell-based; conditions: LB100 pretreatment then carboplatin 4 hours, versus carboplatin alone
Description: FIGS. 3A-3H depict SCLC cell invasion through HUVEC monolayer. FIGS. 3A-3D: Graphical representation of H524/H69 cell ability to disrupt a confluent HUVEC monolayer using an electrical substrate-impedance sensing system. Arrows indicate time point when cells were added. Inserts show mean values and SD for each group after 20 h of drug treatment. After treatment, cell viability was counted using an Auto T4 Cell Counter (Nexcelom Cellometer). Cell viability was 90-95% for drug-treated groups (n=2). p<0.001 (***) for control (untreated cells) vs. drug combination (LB100/carboplatin). Whole cell Pt accumulation. Graphical representation of LB-100 effect on platinum uptake by SCLC cells. […]
To this end, platinum (Pt) levels were measured in H524 and H69 cells using Inductively Coupled Plasma Mass Spectrometry (ICP-MS). […]
Samples were prepared and analyzed for Pt concentrations at the Isotoparium (California Institute of Technology), using precleaned Teflon beakers (PFA), Optima grade reagents (Fisher Chemical) and 18.2 MΩ Milli-Q water. […] All samples were analyzed using an iCAP RQ (ThermoFisher, Waltham, Mass.) ICP-MS and an SC-2 DX autosampler (Elemental Scientific, Omaha, Nebr.). […] A Pt standard curve (0.001, 0.01, 0.1, 1.0 ppb, Spex Certiprep Assurance, Lot #24-140PTM) was created using the HNO3 stock solution and measured for sample calibration. […]

[5] = tested on: H446 spheroids; assay: H446 spheroids with drugs and T cells, live imaging; assay type: cell-based; conditions: without T cells, 48 h
Description: FIGS. 7A-7G depict results of T cells infiltration in H446 spheroids in the presence of LB100 and atezolizumab. FIG. 7A: Schematic of the effect of activated T cells on H446 spheroid degradation. At time point 0, single spheroids in 96 well plate were treated with LB-100, atezolizumab and T cells. Beads mimic in vivo T cell activation by two action signals CD3 and CD28. IncuCyte® Live-Cell Analysis System was used for the spheroidal imaging. Right panel presents spheroidal degeneration after 48 h incubation with LB-100, atezolizumab and activated T cells. FIGS. 7B and 7C: Automated image analysis provides metrics (0 h-μm, […]) and spheroid area (yellow-bright field mask). Column bars present mean values of spheroids at 0h. Representative images in bright field mask. […]
Cytotoxic CD8+ cells were isolated from whole blood, buffy coat of healthy donors following the protocol described in the Methods. […] Spheroid survival was monitored for 48 hours and their diameters were measured from phase contrast images. […]
H446 were generated as described in Materials and Methods (Monitoring of spheroid growth and cytotoxicity with the IncuCyte® Live-Cell Analysis System and IncuCyte® Cytotox reagent) following incubation with T cells and drugs. The effect of LB100 and atezolizumab in the presence of T cells was monitored with IncuCyte 3D Multi-Tumor Spheroid assay.

## C[NH+]1CCN(C(=O)C2C(C(=O)O)[C@H]3CC[C@@H]2O3)CC1 (stereo in doubt) [LB-100, 3-[(4-Methylpiperazin-1-yl)carbonyl]-7-oxabicyclo[2.2.1]heptane-2-carboxylic acid]
[1]; Phase I trial
  tolerability / adverse events: no notable adverse events; also recorded: well tolerated
[1]; Phase I, advanced solid tumors
  patients who achieved stable disease: 10 out of 20
[2]; after the 2nd cycle, LB-100 0.83 mg/m2 days 1 & 3 with carboplatin/etoposide/atezolizumab
  partial objective response: 47%
[2]; following the 4th and last cycle of induction therapy
  decrease in measurable tumor: 58%
[3]
  IC50: 6.9 µM
[4]
  Pt level in cells: enhanced the uptake of Pt
[5]
  effect on spheroids (degeneration), drug alone: moderate effect
